Results as given in ChEMBL document CHEMBL4359904, “Structural tuning of acridones for developing anticancer agents targeting dihydrofolate reductase” (Bioorg Med Chem Lett, 2019).
Activity calls are given as the source filed them. The rule behind the calls is not given here.

How the values were obtained:
SR = experiment: Growth inhibition of human SR cells incubated for 48 hrs by sulforhodamine B assay; assay type: functional
HOP-92 = experiment: Growth inhibition of human HOP92 cells incubated for 48 hrs by sulforhodamine B assay; assay type: functional; details: HOP-92, 48 h
[1] = target: T1, Dihydrofolate reductase (Homo sapiens) (UniProt P00374); experiment: Inhibition of human dihydrofolate reductase assessed as association constant by UV-Vis spectra based Benesi Hilebrand equation analysis
T1 sequence (whole entry): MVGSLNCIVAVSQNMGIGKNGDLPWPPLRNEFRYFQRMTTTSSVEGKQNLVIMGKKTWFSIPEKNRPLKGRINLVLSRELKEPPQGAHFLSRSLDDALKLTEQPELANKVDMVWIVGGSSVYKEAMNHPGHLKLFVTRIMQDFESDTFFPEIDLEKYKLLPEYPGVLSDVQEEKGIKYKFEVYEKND

ACHN = experiment: Growth inhibition of human ACHN cells incubated for 48 hrs by sulforhodamine B assay; assay type: functional
MCF7 = experiment: Growth inhibition of human MCF7 cells at 10^-5 M incubated for 48 hrs by sulforhodamine B assay relative to control; assay type: functional; details: MCF7, 48 h, read-out: GI
A498 = experiment: Growth inhibition of human A498 cells incubated for 48 hrs by sulforhodamine B assay; assay type: functional; details: A498, 48 h
LOX IMVI = experiment: Growth inhibition of human LOXIMVI cells incubated for 48 hrs by sulforhodamine B assay; assay type: functional
SK-MEL-28 = experiment: Growth inhibition of human SK-MEL-28 cells incubated for 48 hrs by sulforhodamine B assay; assay type: functional; details: SK-MEL-28, 48 h
SK-MEL-2 = experiment: Growth inhibition of human SK-MEL-2 cells incubated for 48 hrs by sulforhodamine B assay; assay type: functional; details: SK-MEL-2, 48 h
HCT-15 = experiment: Growth inhibition of human HCT15 cells incubated for 48 hrs by sulforhodamine B assay; assay type: functional; details: HCT-15, 48 h
SF-539 = experiment: Growth inhibition of human SF539 cells incubated for 48 hrs by sulforhodamine B assay; assay type: functional; details: SF-539, 48 h
MOLT-4 = experiment: Growth inhibition of human MOLT4 cells incubated for 48 hrs by sulforhodamine B assay; assay type: functional; details: MOLT-4, 48 h
PC-3 = experiment: Growth inhibition of human PC3 cells incubated for 48 hrs by sulforhodamine B assay; assay type: functional; details: PC-3, 48 h
NCI-H460 = experiment: Growth inhibition of human NCI-H460 cells incubated for 48 hrs by sulforhodamine B assay; assay type: functional; details: NCI-H460, 48 h
SF-268 = experiment: Growth inhibition of human SF268 cells incubated for 48 hrs by sulforhodamine B assay; assay type: functional; details: SF-268, 48 h
OVCAR-5 = experiment: Growth inhibition of human OVCAR5 cells at 10^-5 M incubated for 48 hrs by sulforhodamine B assay relative to control; assay type: functional; details: OVCAR-5, 48 h, read-out: GI
HCT-116 = experiment: Growth inhibition of human HCT116 cells incubated for 48 hrs by sulforhodamine B assay; assay type: functional; details: HCT-116, 48 h
U-251 = experiment: Growth inhibition of human U251 cells incubated for 48 hrs by sulforhodamine B assay; assay type: functional; details: U-251, 48 h
[2] = target: T1, Dihydrofolate reductase (Homo sapiens); experiment: Binding affinity to human dihydrofolate reductase at 5 uM assessed as decrease in absorption band by UV-visible spectroscopic analysis
SF-295 = experiment: Growth inhibition of human SF295 cells incubated for 48 hrs by sulforhodamine B assay; assay type: functional; details: SF-295, 48 h
DU-145 = experiment: Growth inhibition of human DU145 cells incubated for 48 hrs by sulforhodamine B assay; assay type: functional; details: DU-145, 48 h
CCRF-CEM = experiment: Growth inhibition of human CCRF-CEM cells at 10^-5 M incubated for 48 hrs by sulforhodamine B assay relative to control; assay type: functional; details: read-out: GI
MDA-MB-231 = experiment: Growth inhibition of human MDA-MB-231/ATCC cells incubated for 48 hrs by sulforhodamine B assay; assay type: functional; details: MDA-MB-231, 48 h
IGROV-1 = experiment: Growth inhibition of human IGROV1 cells at 10^-5 M incubated for 48 hrs by sulforhodamine B assay relative to control; assay type: functional; details: IGROV-1, 48 h, read-out: GI
M14 = experiment: Growth inhibition of human M14 cells incubated for 48 hrs by sulforhodamine B assay; assay type: functional; details: M14, 48 h
SNB-19 = experiment: Growth inhibition of human SNB19 cells incubated for 48 hrs by sulforhodamine B assay; assay type: functional; details: SNB-19, 48 h
C6 = experiment: Induction of morphological changes in rat C6 cells assessed as increase in total length of processes measured after 24 hrs by inverted microscopy analysis relative to control; assay type: functional
HT-29 = experiment: Growth inhibition of human HT-29 cells incubated for 48 hrs by sulforhodamine B assay; assay type: functional; details: HT-29, 48 h
Hs-578T = experiment: Growth inhibition of human Hs578T cells incubated for 48 hrs by sulforhodamine B assay; assay type: functional
CAKI-1 = experiment: Growth inhibition of human Caki1 cells incubated for 48 hrs by sulforhodamine B assay; assay type: functional; details: CAKI-1, 48 h
[3] = read-out: LC50 (the source's name)
[4] = read-out: pLC50 (the source's name) (converted)

Q: Which results are given for `O=C(OC[C@@H]1CO1)c1cccc2c(=O)c3ccccc3[nH]c12`?
A: GI50 (SR; read-out: GI50): 0.3 µM; CC50 (SR; [3]): > 100 µM; GI50 (SR; read-out: pGI50 (converted)): 0.302 µM; CC50 (SR; [4]): > 100 µM; TGI (SR; read-out: pTGI (converted)): 4.37 µM; GI50 (HOP-92): 2.04 µM; CC50 (HOP-92; [4]): > 100 µM; TGI (HOP-92; read-out: pTGI (converted)): 5.25 µM; Ka [1]: 1.6 ×10⁴ /M; GI50 (ACHN; read-out: GI50): 0.89 µM; CC50 (ACHN; [3]): > 100 µM; GI50 (ACHN; read-out: pGI50 (converted)): 0.891 µM; CC50 (ACHN; [4]): > 100 µM; TGI (ACHN; read-out: pTGI (converted)): 3.89 µM; inhibition of growth at 10 µM (MCF7): 100%; GI50 (A498): 2.63 µM; CC50 (A498; [4]): 27.5 µM; TGI (A498; read-out: pTGI (converted)): 6.61 µM; GI50 (LOX IMVI; read-out: pGI50 (converted)): 1.51 µM; CC50 (LOX IMVI; [4]): 6.61 µM; TGI (LOX IMVI; read-out: pTGI (converted)): 3.16 µM; GI50 (SK-MEL-28): 2.4 µM; CC50 (SK-MEL-28; [4]): > 100 µM; TGI (SK-MEL-28; read-out: pTGI (converted)): 5.75 µM; GI50 (SK-MEL-2): 1.95 µM; CC50 (SK-MEL-2; [4]): 7.41 µM; TGI (SK-MEL-2; read-out: pTGI (converted)): 3.8 µM; GI50 (HCT-15): 1.66 µM; CC50 (HCT-15; [4]): > 100 µM; TGI (HCT-15; read-out: pTGI (converted)): 5.25 µM; GI50 (SF-539): 1.78 µM; CC50 (SF-539; [4]): 7.76 µM; TGI (SF-539; read-out: pTGI (converted)): 3.72 µM; GI50 (MOLT-4; read-out: GI50): 0.28 µM; CC50 (MOLT-4; [3]): > 100 µM; GI50 (MOLT-4; read-out: pGI50 (converted)): 0.288 µM; CC50 (MOLT-4; [4]): > 100 µM; TGI (MOLT-4; read-out: pTGI (converted)): 2.34 µM; GI50 (PC-3): 2.04 µM; CC50 (PC-3; [4]): > 100 µM; TGI (PC-3; read-out: pTGI (converted)): 8.32 µM; GI50 (NCI-H460): 1.7 µM; CC50 (NCI-H460; [4]): 51.3 µM; TGI (NCI-H460; read-out: pTGI (converted)): 4.47 µM; GI50 (SF-268; read-out: pGI50 (converted)): 1.62 µM; CC50 (SF-268; [4]): > 100 µM; TGI (SF-268; read-out: pTGI (converted)): 6.03 µM; inhibition of growth at 10 µM (OVCAR-5): 100%; GI50 (HCT-116): 1.12 µM; CC50 (HCT-116; [4]): > 100 µM; TGI (HCT-116; read-out: pTGI (converted)): 8.71 µM; GI50 (U-251): 1.82 µM; CC50 (U-251; [4]): 50.1 µM; TGI (U-251; read-out: pTGI (converted)): 7.24 µM; Activity [2]: Active; GI50 (SF-295): 2.88 µM; CC50 (SF-295; [4]): > 100 µM; TGI (SF-295; read-out: pTGI (converted)): 9.55 µM; GI50 (DU-145): 1.35 µM; CC50 (DU-145; [4]): > 100 µM; TGI (DU-145; read-out: pTGI (converted)): 5.89 µM; inhibition of growth at 10 µM (CCRF-CEM): 93%; GI50 (MDA-MB-231): 2.09 µM; CC50 (MDA-MB-231; [4]): > 100 µM; TGI (MDA-MB-231; read-out: pTGI (converted)): 5.25 µM; inhibition of growth at 10 µM (IGROV-1): 100%; GI50 (M14): 1.66 µM; CC50 (M14; [4]): 9.12 µM; TGI (M14; read-out: pTGI (converted)): 3.89 µM; GI50 (SNB-19): 2.29 µM; CC50 (SNB-19; [4]): 28.2 µM; TGI (SNB-19; read-out: pTGI (converted)): 7.76 µM; Activity (C6): 85.53%; GI50 (HT-29): 2.24 µM; CC50 (HT-29; [4]): > 100 µM; TGI (HT-29; read-out: pTGI (converted)): 7.94 µM; GI50 (Hs-578T): 2.04 µM; CC50 (Hs-578T; [4]): > 100 µM; TGI (Hs-578T; read-out: pTGI (converted)): 5.89 µM; GI50 (CAKI-1): 1.82 µM; CC50 (CAKI-1; [4]): > 100 µM; TGI (CAKI-1; read-out: pTGI (converted)): 8.32 µM
